Patent US10967038B2, “Use of cell-permeable peptide inhibitors of the JNK signal transduction pathway for the treatment of chronic or non-chronic inflammatory eye diseases” (priority 2010, dated 2021)

How the values were obtained:
Format in all cases: in vivo, rat
chemokines/cytokines = assay: Chemokine/Cytokine Multiplex Assay on ocular fluids and sera
Description: Aqueous humor and vitreous were collected and pooled from each enucleated eye. Ocular fluids were immediately centrifuged and the cell-free fractions were collected and frozen at −20° C. before analysis by Multiplex assay. Blood samples were first clotted at room temperature for 2 hours and then at 4° C. overnight. Serum was collected, centrifuged and the clear supernatant was collected and frozen at −20° C. before Multiplex analysis.
In a first set of experiment, 70 rats were randomized into 14 experimental groups with 5 rats per group. Uveitis was induced in each group and rats were killed 6 hours (4 groups), 24 hours (6 groups) and 48 hours (4 groups) after LPS challenge. For each time point tested (i.e. 6 h, 24 h and 48 h), rats treated by intravenous or intravitreous injections of vehicle (NaCl 0.9%) or the JNK-inhibitor (poly-)peptide of SEQ ID NO: 11 were compared to untreated control uveitic rats. Two additional groups, treated by intravenous injection of vehicle and intravitreal injection of dexamethasone were used at 24 hours. Clinical ocular inflammation was recorded only at 24 hours (see Scoring of Endotoxin-Induced Uveitis (EIU) section). At each time point, intraocular fluids from each eye (n=10 per group) and serum from each animal (n=5 per group) were used for Chemokine/Cytokine Multiplex Assay.
Intraocular fluids (diluted to obtain a final volume of 25 μL) and sera (25 μL of 1:5 dilution) were subjected to multiplex bead analysis. This method uses microspheres as the solid support for immunoassays12 and allows the titration of a greater number of cytokines with increased sensitivity than occurs with ELISA.13 For each sample, seventeen analytes were quantified simultaneously using the rat Cytokine/Chemokine-17plex kit (Milliplex Map Kit, Millipore, Saint-Quentin-en-Yvelines, France) according to the manufacturer's instructions: Chemokines MCP-1/CCL2, MIP-1α/CCL3, RANTES/CCL5, IP-10/CXCL10 (IFN-inducible protein-10) and GRO/KC; proinflammatory mediators IL-1[…], IL-18 and TNF-[…]; Th1/Th2/Th17 cytokines IL-2 and IFN-[…]/IL-4, IL-5, IL-6, IL-10 and IL-13/IL-17. The assay was performed in a 96-well filter plate and standard curves for each cytokine were generated with a Rat Cytokine Standard provided in the kit. All incubation steps were performed under medium orbital agitation and in the dark to protect the beads from light. Data acquisition and analysis were performed with the manager software version 4.1 (Bioplex; Bio-Rad) with four or five logistic parameters for standard curves. Detection thresholds for all the analytes were estimated around 1 to 10 pg/mL.

[1] = Ocular biodistribution by immunohistochemistry against SEQ ID NO: 11
Description: For immunohistochemistry, eyeballs were collected and fixed for 1 h at room temperature in phosphate buffered saline (PBS) containing 4% paraformaldehyde before being rinsed overnight in PBS. The next day, samples were embedded and frozen in optimal cutting-temperature (OCT) compound (Tissue-Tek®, Sakura Finetek, Zoeterwoude, Netherland) and stored at −80° C. Frozen antero-posterior sections of eyes (10 μm thick) were performed at the optic nerve level using a cryostat (Leica CM 3050S, Rueil-Malmaison, France) and mounted on super-frost slides for immunohistochemical analysis.
(§1) A second set of experiment was designed to evaluate the anti-inflammatory effect of the JNK-inhibitor (poly-)peptide of SEQ ID NO: 11 at the cellular and tissue level as well as the biodistribution of this molecule 24 hours after administration. Rats were randomized into 11 experimental groups. 6 groups of rats with uveitis: untreated uveitic rats, rats injected intravenously with NaCl or the JNK-inhibitor (poly-)peptide of SEQ ID NO: 11 and rats injected intravitreously with the vehicle, the JNK-inhibitor (poly-)peptide of SEQ ID NO: 11 or dexamethasone. The 5 additional groups without uveitis were: untreated healthy rats, rats treated by NaCl IV or the JNK-inhibitor (poly-)peptide of SEQ ID NO: 11 IV and rats injected IVT with NaCl or the JNK-inhibitor (poly-)peptide of SEQ ID NO: 11. Three eyes from separate rats were collected per group and used for immunohistochemistry.
Immunostaining of the JNK-inhibitor (poly-)peptide of SEQ ID NO: 11 was performed on healthy and uveitic eyes to study its ocular biodistribution after systemic or local administration. Briefly, sections were permeabilized as described above before being sequentially incubated with an anti-SEQ ID NO: 11 purified rabbit IgG and a secondary Alexa 594 (red)-conjugated goat anti-rabbit IgG (Invitrogen, Cergy Pontoise, France) diluted 1:100 and 1:250 in PBS respectively. Immunostaining of untreated healthy and uveitic eyes were used as negative controls. Nuclei were stained with DAPI before mounting and observation.

[2] = system: phospho-p44/42 MAPK (Erk1/2); assay: Immunohistochemistry of phospho-p44/42 MAPK (Erk1/2) in EIU eyes; conditions: 24 h
Description: as §1
To analyze the ERK and p38 MAPK pathways, blots were sequentially incubated with a rabbit phospho-p44/42 MAPK (Erk1/2) (Thr202/Tyr204) (4370) primary antibody (or rabbit phospho-p38 MAPK (Thr180/Tyr182) (9215) antibody) and a horseradish peroxidase-conjugated goat anti-rabbit IgG (H+L) (PI-1000—Vector Laboratories, Clinisciences, Montrouge, France) secondary antibody at dilution 1:5000. […]

[3] = system: inducible nitric oxide synthase (iNOS); assay: iNOS expression in ocular tissues (immunohistochemistry, semi-quantitative RT-PCR); conditions: IV or IVT, 24 h, vs control eyes
Description: Retinas and RPE/choroid/sclera complexes were also collected at 24 hours to analyze iNOS mRNA levels by RT-PCR and c-Jun phosphorylation state by Western-Blot. Tissues were collected only from eyes treated by IV (intravenous) injection of vehicle, IV injection of the JNK-inhibitor (poly-)peptide of SEQ ID NO: 11, IVT (intravitreal) injection of vehicle and IVT injection of the JNK-inhibitor (poly-)peptide of SEQ ID NO: 11 (n=2 eyes per condition collected from separate rats). Eyes were selected so that their EIU clinical score was representative of the mean of the experimental group they belong to, i.e 3 for eyes treated by IV and IVT injection of vehicle and 2 for eyes treated by IV or IVT injection of the JNK-inhibitor (poly-)peptide of SEQ ID NO: 11.
To characterize the cellular infiltrate, sections were double-stained with ED1 and iNOS. […] After staining nuclei with DAPI (Sigma-Aldrich, Saint-Quentin Fallavier, France), sections were mounted in PBS/Glycerol (1/1) and observed by fluorescence photomicroscopy (FXA, Microphot, Nikon, Melville, USA). […] ED1 positive cells and polymorphonuclear cells, identified by the shape of their nuclei stained with DAPI, were quantified on histological sections. […] Results were expressed as mean±standard error of the mean (SEM). […]

[4] = ocular fluids, IV injection, at 6 and 24 hours
[5] = ocular fluids, IV injection, at different time points
[6] = ocular fluids, IVT injection, at 6 hours, vs vehicle IVT
[7] = ocular fluids, IVT injection, at 24 hours, vs vehicle IVT
[8] = ocular fluids, treated versus untreated eyes, any tested time point

In the case of `CC(C)C[C@@H](NC(=O)[C@@H](Cc1ccccc1)NC(=O)[C@H]1CCCN1C(=O)[C@@H](CCC(N)=O)NC(=O)[C@H](NC(=O)[C@H]1CCCN1C(=O)[C@@H](CCCNC(=N)N)NC(=O)[C@@H](CO)NC(=O)[C@@H](CCC(N)=O)NC(=O)[C@H](N)CC(=O)O)C(C)C)C(=O)N[C@H](CC(N)=O)C(=O)N[C@H](CC(C)C)C(=O)N[C@@H](C(=O)N[C@@H](C(=O)N1CCC[C@@H]1C(=O)N[C@H](CCCNC(=N)N)C(=O)N[C@H](CCCCN)C(=O)N1CCC[C@@H]1C(=O)N[C@H](CCCNC(=N)N)C(=O)N1CCC[C@@H]1C(=O)N1CCC[C@@H]1C(=O)N[C@H](CCCNC(=N)N)C(=O)N[C@H](CCCNC(=N)N)C(=O)N[C@H](CCCNC(=N)N)C(=O)N[C@H](CCC(N)=O)C(=O)N[C@H](CCCNC(=N)N)C(=O)N[C@H](CCCNC(=N)N)C(=O)N[C@H](CCCCN)C(=O)N[C@H](CCCCN)C(=O)N[C@H](CCCNC(=N)N)C(=O)NCC(=O)O)[C@H](C)O)[C@H](C)O` [SEQ ID NO: 11], the MCP-1 level (chemokines/cytokines; [4]) is reported as “significant reduction”, the MIP-1α level (chemokines/cytokines; [4]) is reported as “significant reduction” and the RANTES level (chemokines/cytokines; [4]) is reported as “significant reduction”. The GRO/KC level (chemokines/cytokines; ocular fluids, IV injection, at 6 hours) was “significantly reduced”, the IL-10 level (chemokines/cytokines; ocular fluids, IV injection, at 6 hours, not significantly) was “tended to increase” and the IL-6 level (chemokines/cytokines; [5]) was “significantly reduced”. For the same compound, the INF-γ level (chemokines/cytokines; [5]) was “significantly reduced”, the TNF-α level (chemokines/cytokines; [5]) was “significantly reduced” and the IL-2 level (chemokines/cytokines; [6]) was “a trend to a decrease”. For the same compound, the IL-6 level (chemokines/cytokines; [6]) was “a trend to a decrease”, the MCP-1 level (chemokines/cytokines; [6]) was “a trend to a decrease” and the TNF-α level (chemokines/cytokines; [6]) was “a trend to a decrease”. For the same compound, the IL-2 level (chemokines/cytokines; [7]) was “marked decrease”, the IL-13 level (chemokines/cytokines; [7]) was “increase” and the IL-1β level (chemokines/cytokines; [8]) was “did not differ”. For the same compound, the IL-4 level (chemokines/cytokines; [8]) was “did not differ”, the IL-18 level (chemokines/cytokines; [8]) was “did not differ” and the “IL-2 level (tended to be reduced)” value (chemokines/cytokines; serum, IV administration) was “not statistically significant”. The “MIP-1α level (tended to be reduced)” value (chemokines/cytokines; serum, IV administration) was “not statistically significant”, the “IL-2 level (tended to be reduced)” value (chemokines/cytokines; serum, IVT administration) was “not statistically significant” and the “distribution in ocular tissues (immunoreactivity)” value (“distribution in ocular tissues” below) ([1]; EIU eyes, 24 h after IV injection, occasional infiltrating inflammatory cells immunopositive) was “not detected in ocular tissues”. The “distribution in ocular tissues” value ([1]; healthy eyes, 24 h after IV injection, 20 μg/kg) was “no signal was observed”, the “inflammatory cell infiltration in healthy eyes” value ([1]; healthy eyes, 24 h after IV or IVT) was “No inflammatory cell infiltration was observed” and the “distribution in ocular tissues” value ([1]; healthy eyes, 24 h after IVT injection, 0.2 μg/injection) was “distributed in almost all ocular tissues”. The “distribution in ocular tissues” value ([1]; uveitic eyes, 24 h after IVT injection, also in mobilized resident cells (microglial)) was “mostly found in ocular tissues like in healthy eyes”, the “effect on p-Erk1/2 signal in iris epithelium” value ([2]; iris) was “no effect” and the “effect on p-Erk1/2 signal in retinal Müller glial (RMG) cells” value ([2]; neuroretina, IV or IVT) was “no effect”. The “number of iNOS positive cells” value [3] was “reduced”.
